Source: PubChem BioAssay (NCI)
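Growth conditions: 96-well plates. Treatment: test compound, 48 hours, 5 concentrations. Analysis: linear interpolation between bracketing concentrations; unreached endpoints set to highest concentration. TGI: concentration producing complete growth inhibition.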

System: KM12 colon
Experiment: growth of human tumour cells (NCI), 48 h

SMILES	TGI [µM]
O=C1CC(=O)N(c2ccccc2)N1/C(=C/c1ccccc1)c1ccccc1	66.5
CC(C)(C)OC(=O)NCCCCC(NC(=O)OCc1ccccc1)C(N)=O (stereo not given)	> 100
Cc1ccc(S(=O)(=O)N2CCN3C(=O)c4ccccc4C32c2ccc(F)cc2)cc1 (stereo not given)	> 100
O=C1CC(c2ccco2)C2(C(=O)NC(=O)NC2=O)C(c2ccco2)C1 (stereo not given)	> 75

System: ACHN renal
Experiment: growth of human tumour cells (NCI), 48 h

SMILES	TGI [µM]
O=C1CC(=O)N(c2ccccc2)N1/C(=C/c1ccccc1)c1ccccc1	89.5
CC(C)(C)OC(=O)NCCCCC(NC(=O)OCc1ccccc1)C(N)=O (stereo not given)	> 100
Cc1ccc(S(=O)(=O)N2CCN3C(=O)c4ccccc4C32c2ccc(F)cc2)cc1 (stereo not given)	> 100
O=C1CC(c2ccco2)C2(C(=O)NC(=O)NC2=O)C(c2ccco2)C1 (stereo not given)	> 75

System: MDA-N
Experiment: growth of human tumour cells (NCI), 48 h

SMILES	TGI [µM]
O=C1CC(=O)N(c2ccccc2)N1/C(=C/c1ccccc1)c1ccccc1	34.3
CC(C)(C)OC(=O)NCCCCC(NC(=O)OCc1ccccc1)C(N)=O (stereo not given)	> 100
Cc1ccc(S(=O)(=O)N2CCN3C(=O)c4ccccc4C32c2ccc(F)cc2)cc1 (stereo not given)	> 100
O=C1CC(c2ccco2)C2(C(=O)NC(=O)NC2=O)C(c2ccco2)C1 (stereo not given)	> 75

System: SK-MEL-5 melanoma
Experiment: growth of human tumour cells (NCI), 48 h

SMILES	TGI [µM]
O=C1CC(=O)N(c2ccccc2)N1/C(=C/c1ccccc1)c1ccccc1	28.2
CC(C)(C)OC(=O)NCCCCC(NC(=O)OCc1ccccc1)C(N)=O (stereo not given)	> 100
Cc1ccc(S(=O)(=O)N2CCN3C(=O)c4ccccc4C32c2ccc(F)cc2)cc1 (stereo not given)	35.2
O=C1CC(c2ccco2)C2(C(=O)NC(=O)NC2=O)C(c2ccco2)C1 (stereo not given)	> 75

System: SK-MEL-28 melanoma
Experiment: growth of human tumour cells (NCI), 48 h

SMILES	TGI [µM]
O=C1CC(=O)N(c2ccccc2)N1/C(=C/c1ccccc1)c1ccccc1	26
CC(C)(C)OC(=O)NCCCCC(NC(=O)OCc1ccccc1)C(N)=O (stereo not given)	> 100
Cc1ccc(S(=O)(=O)N2CCN3C(=O)c4ccccc4C32c2ccc(F)cc2)cc1 (stereo not given)	> 100
O=C1CC(c2ccco2)C2(C(=O)NC(=O)NC2=O)C(c2ccco2)C1 (stereo not given)	> 75

System: CAKI-1 renal
Experiment: growth of human tumour cells (NCI), 48 h

SMILES	TGI [µM]
O=C1CC(=O)N(c2ccccc2)N1/C(=C/c1ccccc1)c1ccccc1	33.7
CC(C)(C)OC(=O)NCCCCC(NC(=O)OCc1ccccc1)C(N)=O (stereo not given)	> 100
Cc1ccc(S(=O)(=O)N2CCN3C(=O)c4ccccc4C32c2ccc(F)cc2)cc1 (stereo not given)	> 100
O=C1CC(c2ccco2)C2(C(=O)NC(=O)NC2=O)C(c2ccco2)C1 (stereo not given)	> 75

System: SNB-75 CNS
Experiment: growth of human tumour cells (NCI), 48 h

SMILES	TGI [µM]
O=C1CC(=O)N(c2ccccc2)N1/C(=C/c1ccccc1)c1ccccc1	83.2
CC(C)(C)OC(=O)NCCCCC(NC(=O)OCc1ccccc1)C(N)=O (stereo not given)	> 100
Cc1ccc(S(=O)(=O)N2CCN3C(=O)c4ccccc4C32c2ccc(F)cc2)cc1 (stereo not given)	> 100
O=C1CC(c2ccco2)C2(C(=O)NC(=O)NC2=O)C(c2ccco2)C1 (stereo not given)	> 75

System: U251 CNS
Experiment: growth of human tumour cells (NCI), 48 h

SMILES	TGI [µM]
O=C1CC(=O)N(c2ccccc2)N1/C(=C/c1ccccc1)c1ccccc1	27.7
CC(C)(C)OC(=O)NCCCCC(NC(=O)OCc1ccccc1)C(N)=O (stereo not given)	> 100
Cc1ccc(S(=O)(=O)N2CCN3C(=O)c4ccccc4C32c2ccc(F)cc2)cc1 (stereo not given)	> 100
O=C1CC(c2ccco2)C2(C(=O)NC(=O)NC2=O)C(c2ccco2)C1 (stereo not given)	> 75

System: SF-268 CNS
Experiment: growth of human tumour cells (NCI), 48 h

SMILES	TGI [µM]
O=C1CC(=O)N(c2ccccc2)N1/C(=C/c1ccccc1)c1ccccc1	36.3
CC(C)(C)OC(=O)NCCCCC(NC(=O)OCc1ccccc1)C(N)=O (stereo not given)	> 100
Cc1ccc(S(=O)(=O)N2CCN3C(=O)c4ccccc4C32c2ccc(F)cc2)cc1 (stereo not given)	> 100
O=C1CC(c2ccco2)C2(C(=O)NC(=O)NC2=O)C(c2ccco2)C1 (stereo not given)	> 75

System: K-562 leukemia
Experiment: growth of human tumour cells (NCI), 48 h

SMILES	TGI [µM]
O=C1CC(=O)N(c2ccccc2)N1/C(=C/c1ccccc1)c1ccccc1	> 100
CC(C)(C)OC(=O)NCCCCC(NC(=O)OCc1ccccc1)C(N)=O (stereo not given)	> 100
Cc1ccc(S(=O)(=O)N2CCN3C(=O)c4ccccc4C32c2ccc(F)cc2)cc1 (stereo not given)	> 100
O=C1CC(c2ccco2)C2(C(=O)NC(=O)NC2=O)C(c2ccco2)C1 (stereo not given)	> 75

System: SK-MEL-2 melanoma
Experiment: growth of human tumour cells (NCI), 48 h

SMILES	TGI [µM]
O=C1CC(=O)N(c2ccccc2)N1/C(=C/c1ccccc1)c1ccccc1	69
CC(C)(C)OC(=O)NCCCCC(NC(=O)OCc1ccccc1)C(N)=O (stereo not given)	> 100
Cc1ccc(S(=O)(=O)N2CCN3C(=O)c4ccccc4C32c2ccc(F)cc2)cc1 (stereo not given)	> 100
O=C1CC(c2ccco2)C2(C(=O)NC(=O)NC2=O)C(c2ccco2)C1 (stereo not given)	> 75

System: MDA-MB-231 breast
Experiment: growth of human tumour cells (NCI), 48 h

SMILES	TGI [µM]
O=C1CC(=O)N(c2ccccc2)N1/C(=C/c1ccccc1)c1ccccc1	30
CC(C)(C)OC(=O)NCCCCC(NC(=O)OCc1ccccc1)C(N)=O (stereo not given)	> 100
Cc1ccc(S(=O)(=O)N2CCN3C(=O)c4ccccc4C32c2ccc(F)cc2)cc1 (stereo not given)	> 100
O=C1CC(c2ccco2)C2(C(=O)NC(=O)NC2=O)C(c2ccco2)C1 (stereo not given)	> 75

System: MDA-MB-435
Experiment: growth of human tumour cells (NCI), 48 h

SMILES	TGI [µM]
O=C1CC(=O)N(c2ccccc2)N1/C(=C/c1ccccc1)c1ccccc1	36.5
CC(C)(C)OC(=O)NCCCCC(NC(=O)OCc1ccccc1)C(N)=O (stereo not given)	> 100
Cc1ccc(S(=O)(=O)N2CCN3C(=O)c4ccccc4C32c2ccc(F)cc2)cc1 (stereo not given)	> 100
O=C1CC(c2ccco2)C2(C(=O)NC(=O)NC2=O)C(c2ccco2)C1 (stereo not given)	> 75

System: IGROV1 ovarian
Experiment: growth of human tumour cells (NCI), 48 h

SMILES	TGI [µM]
O=C1CC(=O)N(c2ccccc2)N1/C(=C/c1ccccc1)c1ccccc1	43.9
CC(C)(C)OC(=O)NCCCCC(NC(=O)OCc1ccccc1)C(N)=O (stereo not given)	> 100
Cc1ccc(S(=O)(=O)N2CCN3C(=O)c4ccccc4C32c2ccc(F)cc2)cc1 (stereo not given)	> 100
O=C1CC(c2ccco2)C2(C(=O)NC(=O)NC2=O)C(c2ccco2)C1 (stereo not given)	> 75

System: M14 melanoma
Experiment: growth of human tumour cells (NCI), 48 h

SMILES	TGI [µM]
O=C1CC(=O)N(c2ccccc2)N1/C(=C/c1ccccc1)c1ccccc1	46.6
CC(C)(C)OC(=O)NCCCCC(NC(=O)OCc1ccccc1)C(N)=O (stereo not given)	> 100
Cc1ccc(S(=O)(=O)N2CCN3C(=O)c4ccccc4C32c2ccc(F)cc2)cc1 (stereo not given)	> 100
O=C1CC(c2ccco2)C2(C(=O)NC(=O)NC2=O)C(c2ccco2)C1 (stereo not given)	> 75

System: BT-549 breast
Experiment: growth of human tumour cells (NCI), 48 h

SMILES	TGI [µM]
O=C1CC(=O)N(c2ccccc2)N1/C(=C/c1ccccc1)c1ccccc1	50.2
CC(C)(C)OC(=O)NCCCCC(NC(=O)OCc1ccccc1)C(N)=O (stereo not given)	> 100
Cc1ccc(S(=O)(=O)N2CCN3C(=O)c4ccccc4C32c2ccc(F)cc2)cc1 (stereo not given)	> 100
O=C1CC(c2ccco2)C2(C(=O)NC(=O)NC2=O)C(c2ccco2)C1 (stereo not given)	> 75

System: HOP-62 NSCLC
Experiment: growth of human tumour cells (NCI), 48 h

SMILES	TGI [µM]
O=C1CC(=O)N(c2ccccc2)N1/C(=C/c1ccccc1)c1ccccc1	54.5
CC(C)(C)OC(=O)NCCCCC(NC(=O)OCc1ccccc1)C(N)=O (stereo not given)	> 100
Cc1ccc(S(=O)(=O)N2CCN3C(=O)c4ccccc4C32c2ccc(F)cc2)cc1 (stereo not given)	> 100
O=C1CC(c2ccco2)C2(C(=O)NC(=O)NC2=O)C(c2ccco2)C1 (stereo not given)	> 75

System: HCT-116 colon
Experiment: growth of human tumour cells (NCI), 48 h

SMILES	TGI [µM]
O=C1CC(=O)N(c2ccccc2)N1/C(=C/c1ccccc1)c1ccccc1	32
CC(C)(C)OC(=O)NCCCCC(NC(=O)OCc1ccccc1)C(N)=O (stereo not given)	> 100
Cc1ccc(S(=O)(=O)N2CCN3C(=O)c4ccccc4C32c2ccc(F)cc2)cc1 (stereo not given)	> 100
O=C1CC(c2ccco2)C2(C(=O)NC(=O)NC2=O)C(c2ccco2)C1 (stereo not given)	> 75

System: NCI-H460 lung
Experiment: growth of human tumour cells (NCI), 48 h

SMILES	TGI [µM]
O=C1CC(=O)N(c2ccccc2)N1/C(=C/c1ccccc1)c1ccccc1	39
CC(C)(C)OC(=O)NCCCCC(NC(=O)OCc1ccccc1)C(N)=O (stereo not given)	> 100
Cc1ccc(S(=O)(=O)N2CCN3C(=O)c4ccccc4C32c2ccc(F)cc2)cc1 (stereo not given)	> 100
O=C1CC(c2ccco2)C2(C(=O)NC(=O)NC2=O)C(c2ccco2)C1 (stereo not given)	> 75

System: NCI/ADR-RES ovarian
Experiment: growth of human tumour cells (NCI), 48 h

SMILES	TGI [µM]
O=C1CC(=O)N(c2ccccc2)N1/C(=C/c1ccccc1)c1ccccc1	61.5
CC(C)(C)OC(=O)NCCCCC(NC(=O)OCc1ccccc1)C(N)=O (stereo not given)	> 100
Cc1ccc(S(=O)(=O)N2CCN3C(=O)c4ccccc4C32c2ccc(F)cc2)cc1 (stereo not given)	> 100
O=C1CC(c2ccco2)C2(C(=O)NC(=O)NC2=O)C(c2ccco2)C1 (stereo not given)	> 75

System: PC-3 prostate
Experiment: growth of human tumour cells (NCI), 48 h

SMILES	TGI [µM]
O=C1CC(=O)N(c2ccccc2)N1/C(=C/c1ccccc1)c1ccccc1	47.7
CC(C)(C)OC(=O)NCCCCC(NC(=O)OCc1ccccc1)C(N)=O (stereo not given)	> 100
Cc1ccc(S(=O)(=O)N2CCN3C(=O)c4ccccc4C32c2ccc(F)cc2)cc1 (stereo not given)	> 100
O=C1CC(c2ccco2)C2(C(=O)NC(=O)NC2=O)C(c2ccco2)C1 (stereo not given)	> 75

System: UO-31 renal
Experiment: growth of human tumour cells (NCI), 48 h

SMILES	TGI [µM]
O=C1CC(=O)N(c2ccccc2)N1/C(=C/c1ccccc1)c1ccccc1	29.2
CC(C)(C)OC(=O)NCCCCC(NC(=O)OCc1ccccc1)C(N)=O (stereo not given)	> 100
Cc1ccc(S(=O)(=O)N2CCN3C(=O)c4ccccc4C32c2ccc(F)cc2)cc1 (stereo not given)	> 100
O=C1CC(c2ccco2)C2(C(=O)NC(=O)NC2=O)C(c2ccco2)C1 (stereo not given)	> 75

System: SN12C renal
Experiment: growth of human tumour cells (NCI), 48 h

SMILES	TGI [µM]
O=C1CC(=O)N(c2ccccc2)N1/C(=C/c1ccccc1)c1ccccc1	44.8
CC(C)(C)OC(=O)NCCCCC(NC(=O)OCc1ccccc1)C(N)=O (stereo not given)	> 100
Cc1ccc(S(=O)(=O)N2CCN3C(=O)c4ccccc4C32c2ccc(F)cc2)cc1 (stereo not given)	> 100
O=C1CC(c2ccco2)C2(C(=O)NC(=O)NC2=O)C(c2ccco2)C1 (stereo not given)	> 75

System: T-47D breast
Experiment: growth of human tumour cells (NCI), 48 h

SMILES	TGI [µM]
O=C1CC(=O)N(c2ccccc2)N1/C(=C/c1ccccc1)c1ccccc1	67.8
CC(C)(C)OC(=O)NCCCCC(NC(=O)OCc1ccccc1)C(N)=O (stereo not given)	> 100
Cc1ccc(S(=O)(=O)N2CCN3C(=O)c4ccccc4C32c2ccc(F)cc2)cc1 (stereo not given)	> 100
O=C1CC(c2ccco2)C2(C(=O)NC(=O)NC2=O)C(c2ccco2)C1 (stereo not given)	> 75

System: MCF7 breast
Experiment: growth of human tumour cells (NCI), 48 h

SMILES	TGI [µM]
O=C1CC(=O)N(c2ccccc2)N1/C(=C/c1ccccc1)c1ccccc1	57.3
CC(C)(C)OC(=O)NCCCCC(NC(=O)OCc1ccccc1)C(N)=O (stereo not given)	> 100
Cc1ccc(S(=O)(=O)N2CCN3C(=O)c4ccccc4C32c2ccc(F)cc2)cc1 (stereo not given)	> 100
O=C1CC(c2ccco2)C2(C(=O)NC(=O)NC2=O)C(c2ccco2)C1 (stereo not given)	> 75

System: RPMI-8226 leukemia
Experiment: growth of human tumour cells (NCI), 48 h

SMILES	TGI [µM]
O=C1CC(=O)N(c2ccccc2)N1/C(=C/c1ccccc1)c1ccccc1	34.5
CC(C)(C)OC(=O)NCCCCC(NC(=O)OCc1ccccc1)C(N)=O (stereo not given)	> 100
Cc1ccc(S(=O)(=O)N2CCN3C(=O)c4ccccc4C32c2ccc(F)cc2)cc1 (stereo not given)	83.3
O=C1CC(c2ccco2)C2(C(=O)NC(=O)NC2=O)C(c2ccco2)C1 (stereo not given)	> 75

System: 786-0 renal
Experiment: growth of human tumour cells (NCI), 48 h

SMILES	TGI [µM]
CC(C)(C)OC(=O)NCCCCC(NC(=O)OCc1ccccc1)C(N)=O (stereo not given)	> 100
Cc1ccc(S(=O)(=O)N2CCN3C(=O)c4ccccc4C32c2ccc(F)cc2)cc1 (stereo not given)	> 100
O=C1CC(c2ccco2)C2(C(=O)NC(=O)NC2=O)C(c2ccco2)C1 (stereo not given)	> 75

System: SF-295 CNS
Experiment: growth of human tumour cells (NCI), 48 h

SMILES	TGI [µM]
O=C1CC(=O)N(c2ccccc2)N1/C(=C/c1ccccc1)c1ccccc1	35.6
CC(C)(C)OC(=O)NCCCCC(NC(=O)OCc1ccccc1)C(N)=O (stereo not given)	> 100
Cc1ccc(S(=O)(=O)N2CCN3C(=O)c4ccccc4C32c2ccc(F)cc2)cc1 (stereo not given)	> 100
